Experiment [1] has as its target T1, Vitamin D3 receptor (Mus musculus) (UniProt P48281).
T1 sequence (whole entry): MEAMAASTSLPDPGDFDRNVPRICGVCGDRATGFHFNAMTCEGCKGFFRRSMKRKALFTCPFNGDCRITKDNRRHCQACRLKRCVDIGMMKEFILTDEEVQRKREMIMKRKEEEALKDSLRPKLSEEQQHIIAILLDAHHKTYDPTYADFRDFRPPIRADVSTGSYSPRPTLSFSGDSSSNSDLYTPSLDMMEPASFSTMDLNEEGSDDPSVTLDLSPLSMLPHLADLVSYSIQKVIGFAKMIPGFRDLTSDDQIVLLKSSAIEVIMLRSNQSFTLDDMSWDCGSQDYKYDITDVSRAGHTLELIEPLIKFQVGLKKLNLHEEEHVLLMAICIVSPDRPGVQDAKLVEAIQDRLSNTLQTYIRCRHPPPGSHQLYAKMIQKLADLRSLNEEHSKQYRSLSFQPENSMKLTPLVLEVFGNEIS
In words: Effect on Ca level in mouse serum relative to 1-alpha,25(OH)2D3 treatment. It counts as functional, in vivo.

Experiment [2] addresses T2, Vitamin D3 receptor (Sus scrofa) (UniProt A3RGC1).
T2 sequence (whole entry): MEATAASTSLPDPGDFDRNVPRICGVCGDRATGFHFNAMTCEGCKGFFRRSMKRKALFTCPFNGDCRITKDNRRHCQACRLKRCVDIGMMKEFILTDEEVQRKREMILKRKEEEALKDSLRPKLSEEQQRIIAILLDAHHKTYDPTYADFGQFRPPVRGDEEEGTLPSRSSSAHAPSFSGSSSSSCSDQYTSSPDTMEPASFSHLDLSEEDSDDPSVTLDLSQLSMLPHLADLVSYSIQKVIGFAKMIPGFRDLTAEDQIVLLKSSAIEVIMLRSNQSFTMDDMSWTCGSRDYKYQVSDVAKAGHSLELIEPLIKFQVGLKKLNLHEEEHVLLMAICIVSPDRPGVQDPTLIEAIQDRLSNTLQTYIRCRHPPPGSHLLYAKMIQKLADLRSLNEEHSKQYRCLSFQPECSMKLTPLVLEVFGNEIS
In words: Binding affinity for pig nuclear vitamin D receptor relative to 1-alpha,25(OH)2D3.

The target of experiment [3] is T3, Vitamin D3 receptor (Homo sapiens) (UniProt P11473).
T3 sequence (whole entry): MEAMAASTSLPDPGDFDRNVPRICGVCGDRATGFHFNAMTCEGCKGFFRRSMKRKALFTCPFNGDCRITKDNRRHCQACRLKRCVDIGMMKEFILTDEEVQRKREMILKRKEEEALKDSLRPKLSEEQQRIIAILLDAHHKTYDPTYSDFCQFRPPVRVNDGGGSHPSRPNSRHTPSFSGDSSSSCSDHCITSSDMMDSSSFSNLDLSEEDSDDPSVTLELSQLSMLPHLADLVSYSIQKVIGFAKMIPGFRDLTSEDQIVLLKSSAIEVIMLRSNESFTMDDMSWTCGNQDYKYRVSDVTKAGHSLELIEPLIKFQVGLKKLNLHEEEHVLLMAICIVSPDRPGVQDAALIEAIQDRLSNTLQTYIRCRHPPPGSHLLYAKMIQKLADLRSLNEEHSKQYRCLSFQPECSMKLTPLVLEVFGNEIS
In words: Antiproliferative activity in human breast cancer MCF-7 cells relative to 1-alpha,25(OH)2D3. Particulars: MCF7. It counts as functional, cell-based.

Experiment [4] has as its target T3, Vitamin D3 receptor (Homo sapiens). In words: Differentiation activity in human leukemia HL-60 cells relative to 1-alpha,25(OH)2D3. It counts as functional, cell-based.
The species named for another experiment is Mus musculus. In words: Effect of compound on Ca level in mice blood serum was determined. The format is functional.
The test system of the next experiment is MCF7. In words: Antiproliferative activity on human breast cancer MCF-7 cells was determined. It counts as functional.
Experiment [5] has as its target T2, Vitamin D3 receptor (Sus scrofa). In words: Binding affinity for pig nuclear vitamin D receptor.
A further experiment has as its system HL-60. In words: Prodifferentiating activity of compound on human leukemia HL-60 cells was determined. The format is functional.

For the compound `CC(C)(O)CCO[C@H]1CC[C@@]2(CCC/C(=C\C=C3C[C@@H](O)C[C@H](O)C3)C2)CC1`, the Activity in experiment [1] is less than 0.25; in experiment [2], less than 0.1; in experiment [3], 60; in experiment [4], 8.
Consider `CC(C)(O)CCO[C@H]1CC[C@]2(CCC/C(=C\C=C3C[C@@H](O)C[C@H](O)C3)C2)CC1`, for which the Activity in experiment [1] was less than 0.25; in experiment [2], less than 0.1; in experiment [3] it was 7; in experiment [4], 6.
In the case of `C=C1/C(=C\C=C2/CCC[C@]3(CC[C@@H](OCCC(C)(C)O)CC3)C2)C[C@@H](O)C[C@@H]1O`, the Activity in experiment [1] is less than 0.25; in experiment [2] it was 0.5; in experiment [3], 10.
As to `C=C1/C(=C\C=C2/CCC[C@]3(C)[C@@H]([C@H](C)CCCC(C)(C)O)CC[C@@H]23)C[C@@H](O)C[C@@H]1O` [CALCITRIOL], the Activity (in the experiment listed under Mus musculus; in the experiment with MCF7; in experiment [5]; in the experiment on HL-60) was 100 in each case.
Regarding `C=C1/C(=C/C=C2/CCC[C@]3(CC[C@H](OCCC(C)(C)O)CC3)C2)C[C@@H](O)C[C@@H]1O`, the Activity in experiment [1] was less than 0.25; in experiment [2], less than 0.1; in experiment [3] it was 0; in experiment [4], less than 1.

For the origin of these results see ChEMBL document CHEMBL1137110, “Synthesis and biological activity of 22-oxa CD-ring modified analogues of 1alpha,25-dihydroxyvitamin D3: spiro[5.5]undecane CF-ring analogues” (2004).
